Source: patent US20100093748A1, “SUBSTITUTED PIPERIDINES HAVING PROTEIN KINASE INHIBITING ACTIVITY” (ASTEX THERAPEUTICS LIMITED, priority 2006, published 2010)
pIC50: −log10 of the molar value.

Test system: phosphorylation of Serine-9 residue in Glycogen Synthase Kinase-3beta as surrogate marker of cellular PKB (Akt) activity
Assay: In vitro MDA-MB-468 human breast adenocarcinoma GSK-3 phosphorylation assay
Type: cell-based
Settings: MDA-MB-468 cells, 2 hours compound incubation, mean IC50, read-out: Cell pGSK3b IC50
Source text: This assay determines the ability of test compounds to inhibit phosphorylation of Serine-9 residue in Glycogen Synthase Kinase-3beta (GSK-313) as a surrogate marker of cellular PKB (Akt) activity, as assessed using Acumen Explorer Fluorescent Plate-Reader technology. A MDA-MB-468 human breast adenocarcinoma cell line (LGC Promochem, Teddington, Middlesex, UK, Catalogue No. HTB-132) was routinely maintained in Dulbecco's modified Eagle's growth medium (DMEM; Invitrogen Limited, Paisley, UK Catalogue No. 11966-025) containing 10% heat-inactivated foetal calf serum (FCS; Sigma, Poole, Dorset, UK, Catalogue No. F0392) and 1% L-glutamine (Gibco, Catalogue No. 25030-024) at 37° C. with 5% CO2 up to a confluency of 70-90%.
For the phosphorylation assay, the cells were detached from the culture flask using Trypsin-EDTA (Invitrogen Limited, Catalogue No. 25300-062) and seeded into the wells of a black transparent-bottom Corning Costar Polystyrene 96 well plate (Fisher Scientific UK, Loughborough, Leicestershire, UK; Catalogue No. 3904 and DPS-130-020K) at a density of 5000 cells per well in 100 μl of complete growth media. The cells were incubated overnight at 37° C. with 5% CO2 to allow them to adhere.
On day 2, the cells were treated with test compounds and incubated for 2 hours at 37° C. with 5% CO2. Test compounds were prepared as 10mM stock solutions in DMSO and dosed directly to required concentration into test wells using non-contact (acoustic dispensing of multiple 2.5 nl droplets directly into assay wells) ECHO dosing technology (Labcyte Inc Sunnyvale, Calif., USA). Each plate contained control wells without test compound.
20 μl of fixing buffer (Phosphate Buffered Saline (PBS) containing 10% formaldehyde; Sigma; Catalogue No. F1635) was then added to each well to give a final well concentration 1.6%. Plates were then incubated for 30 minutes at room temperature prior to the fixative being removed. Each well was washed once with 250 μl of PBS and then 50 μl PBS added to each well. PBS was then aspirated and cells permeabilised and blocked by incubating each well with 50 μl of permeabilisation/blocking buffer (PBS containing 0.5% Tween 20 (Sigma; Catalogue No. P5927) and 5% Marvel Milk Powder (Andrews Pharmacy Ltd, Macclesfield, Cheshire, UK; Catalogue No. APC100199)) for 1 hour at room temperature prior to staining.
Following removal of Perm/Block buffer, 50 μl of primary anti-phospho-GSK-3β antibody (Cell Signalling Technology (New England Biolabs (Uk) Ltd.), Hitchin, Hertfordshire, UK; Catalogue No.9336 diluted 1:400 in Blocking buffer (PBS containing 5% Marvel and 0.05% Tween/Polysorbate 20) was added to each well and incubated overnight at 4° C.
Each well was washed three times in 250 μl of wash buffer (PBS containing 0.05% polysorbate 20), and cells incubated for 1 hour at room temperature with 50 μl of secondary fluorescently-labelled anti-rabbit Alexa Fluor 488 antibody (Molecular Probes, Invitrogen Limited, Catalogue No. A11008) diluted 1:750 in blocking buffer. Plates were washed three times in 250 μl of wash buffer and stored containing 50 μl of PBS at 4° C. until required.
Plates were analysed using an Acumen Explorer Plate-reader to quantify level of fluorescent signal that represents quantity of phosphorylated-GSK-313.
IC50 calculation—IC50 is the concentration of compound required to give 50% effect over the range of activity affected by the compound, between maximum (no compound) and minimum (excess level of compound) response control data. IC50 values were determined by fitting background corrected, dose response assay data to a 4 parameter logistic curve fit equation model with the minimum response set to zero. This was done using an in-house developed algorithm within the Origin graphing software package (OriginLab Corporation, Northampton, Mass., USA). […]

| SMILES | pIC50 |
| --- | --- |
| NCC1(c2nc3cc(Cl)ccc3[nH]2)CCN(c2ncnc3[nH]ccc23)CC1 [Example 67B, (4-(5-chloro-1H-benzo[d]imidazol-2-yl)-1-(7H-pyrrolo[2,3-d]pyrimidin-4-yl)piperidin-4-yl)methanamine] | 7.21 |
| NC1(c2nc3cc(Br)ccc3[nH]2)CCN(c2ncnc3[nH]ccc23)CC1 [Example 68B, 4-(5-bromo-1H-benzo[d]imidazol-2-yl)-1-(7H-pyrrolo[2,3-d]pyrimidin-4-yl)piperidin-4-amine] | 6.34 |
| NC1(c2nc3cc(-c4ccccc4)ccc3[nH]2)CCN(c2ncnc3[nH]ccc23)CC1 [Example 68D, 4-(5-phenyl-1H-benzo[d]imidazol-2-yl)-1-(7H-pyrrolo[2,3-d]pyrimidin-4-yl)piperidin-4-amine] | 5.62 |
| NC1(c2nc3cc(-c4ccoc4)ccc3[nH]2)CCN(c2ncnc3[nH]ccc23)CC1 [Example 69, 4-(5-furan-3-yl-1H-benzimidazol-2-yl)-1-(7H-pyrrolo[2,3-d]pyrimidin-4-yl)piperidin-4-amine] | 5.80 |
| NC1(c2nc3cc(-c4ccncc4)ccc3[nH]2)CCN(c2ncnc3[nH]ccc23)CC1 [Example 70, 4-(5-pyridin-4-yl-1H-benzimidazol-2-yl)-1-(7H-pyrrolo[2,3-d]pyrimidin-4-yl)piperidin-4-amine] | 5.80 |
| COc1ccccc1-c1ccc2[nH]c(C3(N)CCN(c4ncnc5[nH]ccc45)CC3)nc2c1 [Example 71, 4-[5-(2-methoxyphenyl)-1H-benzimidazol-2-yl]-1-(7H-pyrrolo[2,3-d]pyrimidin-4-yl)piperidin-4-amine] | 5.60 |
| NC1(c2nc3cc(-c4ccco4)ccc3[nH]2)CCN(c2ncnc3[nH]ccc23)CC1 [Example 72] | 5.52 |
| COc1ccc(-c2ccc3[nH]c(C4(N)CCN(c5ncnc6[nH]ccc56)CC4)nc3c2)cc1 [Example 73, 4-[5-(4-methoxyphenyl)-1H-benzimidazol-2-yl]-1-(7H-pyrrolo[2,3-d]pyrimidin-4-yl)piperidin-4-amine] | 5.48 |
| Cn1cc(-c2ccc3[nH]c(C4(N)CCN(c5ncnc6[nH]ccc56)CC4)nc3c2)cn1 [Example 74, 4-[5-(1-methylpyrazol-4-yl)-1H-benzimidazol-2-yl]-1-(7H-pyrrolo[2,3-d]pyrimidin-4-yl)piperidin-4-amine] | 5.43 |
| CS(=O)(=O)c1cccc(-c2ccc3[nH]c(C4(N)CCN(c5ncnc6[nH]ccc56)CC4)nc3c2)c1 [Example 75, 4-[5-(3-methylsulfonylphenyl)-1H-benzimidazol-2-yl]-1-(7H-pyrrolo[2,3-d]pyrimidin-4-yl)piperidin-4-amine] | 5.29 |
| COc1cccc(-c2ccc3[nH]c(C4(N)CCN(c5ncnc6[nH]ccc56)CC4)nc3c2)c1 [Example 76, 4-[5-(3-methoxyphenyl)-1H-benzimidazol-2-yl]-1-(7H-pyrrolo[2,3-d]pyrimidin-4-yl)piperidin-4-amine] | 5.19 |
| NC1(c2nc3cc(-c4cccnc4)ccc3[nH]2)CCN(c2ncnc3[nH]ccc23)CC1 [Example 77, 4-(5-pyridin-3-yl-1H-benzimidazol-2-yl)-1-(7H-pyrrolo[2,3-d]pyrimidin-4-yl)piperidin-4-amine] | 4.92 |
| CS(=O)(=O)c1ccc(-c2ccc3[nH]c(C4(N)CCN(c5ncnc6[nH]ccc56)CC4)nc3c2)cc1 [Example 78, 4-[5-(4-methylsulfonylphenyl)-1H-benzimidazol-2-yl]-1-(7H-pyrrolo[2,3-d]pyrimidin-4-yl)piperidin-4-amine] | 4.80 |
| NC1(c2nc3c(-c4cccnc4)cccc3[nH]2)CCN(c2ncnc3[nH]ccc23)CC1 [Example 79] | 7.07 |
| COc1ccccc1-c1cccc2[nH]c(C3(N)CCN(c4ncnc5[nH]ccc45)CC3)nc12 [Example 80, 4-[4-(2-methoxyphenyl)-1H-benzimidazol-2-yl]-1-(7H-pyrrolo[2,3-d]pyrimidin-4-yl)piperidin-4-amine] | 7.19 |
| COc1cccc(-c2cccc3[nH]c(C4(N)CCN(c5ncnc6[nH]ccc56)CC4)nc23)c1 [Example 81, -[4-(3-methoxyphenyl)-1H-benzimidazol-2-yl]-1-(7H-pyrrolo[2,3-d]pyrimidin-4-yl)piperidin-4-amine] | 6.85 |
| COc1ccc(-c2cccc3[nH]c(C4(N)CCN(c5ncnc6[nH]ccc56)CC4)nc23)cc1 [Example 82, -[4-(4-methoxyphenyl)-1H-benzimidazol-2-yl]-1-(7H-pyrrolo[2,3-d]pyrimidin-4-yl)piperidin-4-amine] | 6.92 |
| CS(=O)(=O)c1ccc(-c2cccc3[nH]c(C4(N)CCN(c5ncnc6[nH]ccc56)CC4)nc23)cc1 [Example 83, 4-{4-[4-(methylsulfonyl)phenyl]-1H-benzimidazol-2-yl}-1-(7H-pyrrolo[2,3-d]pyrimidin-4-yl)piperidin-4-amine] | 7.33 |
| NC1(c2nc3c(Br)cccc3[nH]2)CCN(c2ncnc3[nH]ccc23)CC1 [Example 85, 4-(7-Bromo-1H-benzo[d]imidazol-2-yl)-1-(7H-pyrrolo[2,3-d]pyrimidin-4-yl)piperidin-4-amine] | 6.46 |
| Cn1cc(-c2cccc3[nH]c(C4(N)CCN(c5ncnc6[nH]ccc56)CC4)nc23)cn1 [Example 86, 4-(4-(1-Methyl-1H-pyrazol-4-yl)-1H-benzo[d]imidazol-2-yl)-1-(7H-pyrrolo[2,3-d]pyrimidin-4-yl)piperidin-4-amine] | 6.89 |
| NC1(c2nc3c(-c4ccco4)cccc3[nH]2)CCN(c2ncnc3[nH]ccc23)CC1 [Example 87, 4-[7-(2-furyl)-1H-benzimidazol-2-yl]-1-(7H-pyrrolo[2,3-d]pyrimidin-4-yl)piperidin-4-amine] | 6.66 |
| NC1(c2nc3c(-c4ccoc4)cccc3[nH]2)CCN(c2ncnc3[nH]ccc23)CC1 [Example 88, 4-[7-(3-furyl)-1H-benzimidazol-2-yl]-1-(7H-pyrrolo[2,3-d]pyrimidin-4-yl)piperidin-4-amine] | 7.28 |
| NCC1(c2nc3cc(Br)ccc3[nH]2)CCN(c2ncnc3[nH]ccc23)CC1 [Example 89E, (4-(5-Bromo-1H-benzo[d]imidazol-2-yl)-1-(7H-pyrrolo[2,3-d]pyrimidin-4-yl)piperidin-4-yl)methanamine] | 7.09 |
| NC1(c2nc3c(-c4cncnc4)cccc3[nH]2)CCN(c2ncnc3[nH]ccc23)CC1 [Example 91, 4-(4-pyrimidin-5-yl-1H-benzimidazol-2-yl)-1-(7H-pyrrolo[3,2-e]pyrimidin-4-yl)piperidin-4-amine] | 7.28 |
| NC1(c2nc3c(-c4ccncc4)cccc3[nH]2)CCN(c2ncnc3[nH]ccc23)CC1 [Example 92, 4-(4-pyridin-4-yl-1H-benzimidazol-2-yl)-1-(7H-pyrrolo[3,2-e]pyrimidin-4-yl)piperidin-4-amine] | 7.48 |
| NC1(c2nc3c(-c4cn[nH]c4)cccc3[nH]2)CCN(c2ncnc3[nH]ccc23)CC1 [Example 93, 4-[4-(1H-pyrazol-4-yl)-1H-benzimidazol-2-yl]-1-(7H-pyrrolo[3,2-e]pyrimidin-4-yl)piperidin-4-amine] | 6.60 |
| NC1(c2nc3c(-c4cccc(S(N)(=O)=O)c4)cccc3[nH]2)CCN(c2ncnc3[nH]ccc23)CC1 [Example 94, 3-[2-[4-amino-1-(7H-pyrrolo[3,2-e]pyrimidin-4-yl)piperidin-4-yl]-1H-benzimidazol-4-yl]benzenesulfonamide] | 7.33 |
| CS(=O)(=O)c1cccc(-c2cccc3[nH]c(C4(N)CCN(c5ncnc6[nH]ccc56)CC4)nc23)c1 [Example 95, 4-[4-(3-methylsulfonylphenyl)-1H-benzimidazol-2-yl]-1-(7H-pyrrolo[3,2-e]pyrimidin-4-yl)piperidin-4-amine] | 7.31 |
